pIC50: −log10 of the molar value.
Tests used:
JAK2 = target: T1, JAK2 (Homo sapiens, UniProt O60674); assay: Kinobeads assay, JAK2; assay type: binding; details: mixed Molt4/Ramos lysate, read-out: Inhibition values (IC50) JAK2
T1 construct: endogenous in cells; host or cells: mixed Molt4/Ramos lysate (1:2)
Description: (§1) The compounds of the present invention as described in the previous examples were tested in a Kinobeads™ assay as described for ZAP-70 (WO-A 2007/137867). Briefly, test compounds (at various concentrations) and the affinity matrix with the immobilized aminopyrido-pyrimidine ligand 24 were added to cell lysate aliquots and allowed to bind to the proteins in the lysate sample. After the incubation time the beads with captured proteins were separated from the lysate. Bound proteins were then eluted and the presence of JAK2 and JAK3 was detected and quantified using specific antibodies in a dot blot procedure and the Odyssey infrared detection system. Dose response curves for individual kinases were generated and IC50 values calculated. Kinobeads™ assays for ZAP-70 (WO-A 2007/137867) and for kinase selectivity profiling (WO-A 2006/134056) have been previously described.
(§2) The affinity matrix was washed two times with 15 mL of 1×DP buffer containing 0.2% NP40 (IGEPAL® CA-630, Sigma, #I3021) and then resuspended in 1×DP buffer containing 0.2% NP40 (3% beads slurry).
(§3) 5×DP buffer 250 mM Tris-HCl pH 7.4, 25% Glycerol, 7.5 mM MgCl2, 750 mM NaCl, 5 mM Na3VO4; filter the 5×DP buffer through a 0.22 μm filter and store in aliquots at −80° C. The 5×DP buffer is diluted with H2O to 1×DP buffer containing 1 mM DTT and 25 mM NaF.
(§4) Stock solutions of test compounds were prepared in DMSO. In a 96 well plate 30 μL solution of diluted test compounds at 5 mM in DMSO were prepared. Starting with this solution a 1:3 dilution series (9 steps) was prepared. For control experiments (no test compound) a buffer containing 2% DMSO was used.
Molt4 cells (ATCC catalogue number CRL-1582) and Ramos cells (ATCC catalogue number CRL-1596) were grown in 1 L Spinner flasks (Integra Biosciences, #182101) in suspension in RPMI 1640 medium (Invitrogen, #21875-034) supplemented with 10% Fetal Bovine Serum (Invitrogen) at a density between 0.15×106 and 1.2×10^6 cells/mL. Cells were harvested by centrifugation, washed once with 1×PBS buffer (Invitrogen, #14190-094) and cell pellets were frozen in liquid nitrogen and subsequently stored at −80° C. Cells were homogenized in a Potter S homogenizer in lysis buffer: 50 mM Tris-HCl, 0.8% NP40, 5% glycerol, 150 mM NaCl, 1.5 mM MgCl2, 25 mM NaF, 1 mM sodium vanadate, 1 mM DTT, pH 7.5. One complete EDTA-free tablet (protease inhibitor cocktail, Roche Diagnostics, 1873580) per 25 mL buffer was added. The material was dounced 10 times using a mechanized POTTER S, transferred to 50 mL falcon tubes, incubated for 30 minutes on ice and spun down for 10 minutes at 20,000 g at 4° C. (10,000 rpm in Sorvall SLA600, precooled). The supernatant was transferred to an ultracentrifuge (UZ)-polycarbonate tube (Beckmann, 355654) and spun for 1 hour at 100,000 g at 4° C. (33.500 rpm in Ti50.2, precooled). The supernatant was transferred again to a fresh 50 mL falcon tube, the protein concentration was determined by a Bradford assay (BioRad) and samples containing 50 mg of protein per aliquot were prepared. The samples were immediately used for experiments or frozen in liquid nitrogen and stored frozen at −80° C.
(§5) Cell lysate (approximately 50 mg protein per plate) was thawed in a water bath at room temperature and then stored on ice. To the thawed cell lysate 1×DP 0.8% NP40 buffer containing protease inhibitors (1 tablet for 25 mL buffer; EDTA-free protease inhibitor cocktail; Roche Diagnostics 1873580) was added in order to reach a final protein concentration of 10 mg/mL total protein. The diluted cell lysate was stored on ice. Mixed Molt4/Ramos lysate was prepared by combining one volume of Molt4 lysate and two volumes of Ramos lysate (ratio 1:2).
To a 96 well filter plate (Multiscreen HTS, BV Filter Plates, Millipore #MSBVN1250) were added per well: 100 μL affinity matrix (3% beads slurry), 3 μL of compound solution, and 50 μL of diluted lysate. […]

Aurora B = target: T2, Aurora B (Homo sapiens, UniProt Q96GD4); assay: Kinobeads assay, Aurora B; assay type: binding; details: for pIC50: lysate of pervanadate-treated Jurkat cells, read-out: Inhibition values (IC50) Aur B
T2 construct: cell lysates from Jurkat cells (ATCC TIB-152) used; endogenous in cells; host or cells: Jurkat cells (ATCC TIB-152), treated with pervanadate
Description: as §1, §2, §3, §4, §5
To a 96 well filter plate (Multiscreen HTS, BV Filter Plates, Millipore #MSBVN1250) were added per well: 100 μL affinity matrix (3% beads slurry), 3 μL of compound solution, and 50 μL of diluted lysate. Plates were sealed and incubated for 3 hours in a cold room on a plate shaker (Heidolph tiramax 1000) at 750 rpm. Afterwards the plate was washed 3 times with 230 μL washing buffer (1×DP 0.4% NP40). The filter plate was placed on top of a collection 1 plate (Greiner bio-one, PP-microplate 96 well V-shape, 65120) and the beads were then eluted with 20 μL of sample buffer (100 mM Tris, pH 7.4, 4% SDS, 0.00025% bromophenol blue, 20% glycerol, 50 mM DTT). The eluate was frozen quickly at −80° C. and stored at −20° C.
The kinases in the eluates were detected and quantified by spotting on nitrocellulose membranes and using a first antibody directed against the kinase of interest and a fluorescently labelled secondary antibody (anti-rabbit IRDye™ antibody 800 (Licor, #926-32211). The Odyssey Infrared Imaging system from LI-COR Biosciences (Lincoln, Nebr., USA) was operated according to instructions provided by the manufacturer (Schutz-Geschwendener et al, 2004. Quantitative, two-color Western blot detection with infrared fluorescence. Published May 2004 by LI-COR Biosciences, www.licor.com).
After spotting of the eluates the nitrocellulose membrane (BioTrace NT; PALL, #BTNT30R) was first blocked by incubation with Odyssey blocking buffer (LICOR, 927-40000) for 1 hour at room temperature. Blocked membranes were then incubated for 16 hours at the temperature shown in Table 5 with the first antibody diluted in Odyssey blocking buffer (LICOR #927-40000). Afterwards the membrane was washed twice for 10 minutes with PBS buffer containing 0.2% Tween 20 at room temperature. […]

T2 sequence (Q96GD4 whole entry): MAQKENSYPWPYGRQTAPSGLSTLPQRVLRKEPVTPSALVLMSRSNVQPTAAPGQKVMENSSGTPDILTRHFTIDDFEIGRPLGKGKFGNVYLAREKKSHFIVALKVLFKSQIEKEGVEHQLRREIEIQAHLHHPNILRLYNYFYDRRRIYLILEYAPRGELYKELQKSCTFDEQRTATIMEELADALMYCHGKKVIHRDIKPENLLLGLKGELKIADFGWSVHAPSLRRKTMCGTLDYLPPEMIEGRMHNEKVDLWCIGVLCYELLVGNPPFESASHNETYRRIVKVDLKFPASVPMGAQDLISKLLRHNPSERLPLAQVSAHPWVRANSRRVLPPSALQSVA
T1 sequence (O60674 whole entry): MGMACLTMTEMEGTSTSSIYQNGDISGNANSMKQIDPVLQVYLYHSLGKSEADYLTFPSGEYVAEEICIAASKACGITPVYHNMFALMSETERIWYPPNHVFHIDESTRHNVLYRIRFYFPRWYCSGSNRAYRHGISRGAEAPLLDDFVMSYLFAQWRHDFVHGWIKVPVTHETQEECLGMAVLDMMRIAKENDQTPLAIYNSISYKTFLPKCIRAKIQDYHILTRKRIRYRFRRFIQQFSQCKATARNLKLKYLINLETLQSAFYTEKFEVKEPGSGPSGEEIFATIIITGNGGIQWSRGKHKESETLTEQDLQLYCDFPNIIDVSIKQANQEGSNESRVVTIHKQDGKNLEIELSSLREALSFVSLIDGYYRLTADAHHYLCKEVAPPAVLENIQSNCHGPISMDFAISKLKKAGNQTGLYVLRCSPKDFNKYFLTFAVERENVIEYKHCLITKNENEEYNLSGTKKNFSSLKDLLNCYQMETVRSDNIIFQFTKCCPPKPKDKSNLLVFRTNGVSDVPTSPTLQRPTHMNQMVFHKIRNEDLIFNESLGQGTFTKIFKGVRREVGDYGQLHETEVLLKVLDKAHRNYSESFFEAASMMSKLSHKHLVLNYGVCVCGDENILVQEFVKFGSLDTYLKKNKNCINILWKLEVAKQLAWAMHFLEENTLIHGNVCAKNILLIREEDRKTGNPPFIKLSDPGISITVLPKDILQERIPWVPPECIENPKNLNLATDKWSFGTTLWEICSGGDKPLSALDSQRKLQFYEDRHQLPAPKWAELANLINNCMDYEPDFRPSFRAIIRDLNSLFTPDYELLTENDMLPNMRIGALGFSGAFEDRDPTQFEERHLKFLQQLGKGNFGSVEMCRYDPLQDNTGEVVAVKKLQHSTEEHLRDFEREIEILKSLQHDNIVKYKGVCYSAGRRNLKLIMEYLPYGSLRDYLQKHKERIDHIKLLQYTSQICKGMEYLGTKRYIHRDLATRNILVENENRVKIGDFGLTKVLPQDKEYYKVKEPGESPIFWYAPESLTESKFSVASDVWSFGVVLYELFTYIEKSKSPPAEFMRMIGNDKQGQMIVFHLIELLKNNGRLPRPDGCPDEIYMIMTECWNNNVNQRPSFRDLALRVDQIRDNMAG

SMILES | pIC50 (JAK2) | JAK3/AurB Fold Selectivity (Aurora B) | pIC50 (Aurora B)
OCCCn1cc(Nc2ncc3cnn(Cc4cccc(N5CCOCC5)c4)c3n2)cn1 [Example 18, 3-(4-((1-(3-Morpholinobenzyl)-1H-pyrazolo[3,4-d]pyrimidin-6-yl)amino)-1H-pyrazol-1-yl)propan-1-ol] | ≤ 5.00 | >50 Fold | 6.00 to 7.00
Cn1cc(Nc2ncc3cnn(Cc4cccc(N5CCC(F)(F)CC5)c4)c3n2)cn1 [Example 19, 1-(3-(4,4-Difluoropiperidin-1-yl)benzyl)-N-(1-methyl-1H-pyrazol-4-yl)-1H-pyrazolo[3,4-d]pyrimidin-6-amine] | ≤ 5.00 | 10-50 Fold | ≤ 5.00
O=C(CCn1cc(Nc2ncc3cnn(Cc4cccc(N5CCOCC5)c4)c3n2)cn1)N1CCCCC1 [Example 20, 3-(4-((1-(3-Morpholinobenzyl)-1H-pyrazolo[3,4-d]pyrimidin-6-yl)amino)-1H-pyrazol-1-yl)-1-(piperidin-1-yl)propan-1-one] | ≤ 5.00 | >50 Fold | 5.00 to 6.00
Cn1cc(Nc2ncc3cnn(Cc4cccc(N5CCOCC5)c4F)c3n2)cn1 [Example 21, 1-(2-Fluoro-3-morpholinobenzyl)-N-(1-methyl-1H-pyrazol-4-yl)-1H-pyrazolo[3,4-d]pyrimidin-6-amine] | 5.00 to 6.00 | >50 Fold | 5.00 to 6.00
Cn1cc(Nc2ncc3cnn(Cc4cccc(N5CCNCC5)c4)c3n2)cn1 [Example 22, N-(1-Methyl-1H-pyrazol-4-yl)-1-(3-(piperazin-1-yl)benzyl)-1H-pyrazolo[3,4-d]pyrimidin-6-amine] | 5.00 to 6.00 | >50 Fold | 6.00 to 7.00
FC(F)Cn1cc(Nc2ncc3cnn(Cc4cccc(N5CCOCC5)c4)c3n2)cn1 [Example 23, N-(1-(2,2-Difluoroethyl)-1H-pyrazol-4-yl)-1-(3-morpholinobenzyl)-1H-pyrazolo[3,4-d]pyrimidin-6-amine] | ≤ 5.00 | >50 Fold | 5.00 to 6.00
CNC(=O)CCn1cc(Nc2ncc3cnn(Cc4cccc(N5CCOCC5)c4)c3n2)cn1 [Example 24, N-Methyl-3-(4-((1-(3-morpholinobenzyl)-1H-pyrazolo[3,4-d]pyrimidin-6-yl)amino)-1H-pyrazol-1-yl)propanamide] | ≤ 5.00 | >50 Fold | 5.00 to 6.00
Cn1cc(Nc2ncc3cnn(Cc4cccc(N5CCS(=O)(=O)CC5)c4)c3n2)cn1 [Example 25, 4-(3-((6-((1-Methyl-1H-pyrazol-4-yl)amino)-1H-pyrazolo[3,4-d]pyrimidin-1-yl)methyl)phenyl)thiomorpholine 1,1-dioxide] | ≤ 5.00 | 10-50 Fold | 6.00 to 7.00
Cn1cc(Nc2ncc3cnn(Cc4cccc(N5CC6CCC(C5)O6)c4)c3n2)cn1 [Example 26] | ≤ 5.00 | 10-50 Fold | 5.00 to 6.00
Cn1cc(Nc2ncc3cnn(Cc4cccc(N5CCOCC5=O)c4)c3n2)cn1 [Example 27, 4-(3-((6-((1-Methyl-1H-pyrazol-4-yl)amino)-1H-pyrazolo[3,4-d]pyrimidin-1-yl)methyl)phenyl)morpholin-3-one] | 5.00 to 6.00 | 10-50 Fold | 6.00 to 7.00
CN(C)CCCn1cc(Nc2ncc3cnn(Cc4cccc(N5CCOCC5=O)c4)c3n2)cn1 [Example 28, 4-(3-((6-((1-(3-(Dimethylamino)propyl)-1H-pyrazol-4-yl)amino)-1H-pyrazolo[3,4-d]pyrimidin-1-yl)methyl)phenyl)morpholin-3-one] | ≤ 5.00 | >50 Fold | 6.00 to 7.00
O=C1COCCN1c1cccc(Cn2ncc3cnc(Nc4cnn(CCO)c4)nc32)c1 [Example 29, 4-(3-((6-((1-(2-Hydroxyethyl)-1H-pyrazol-4-yl)amino)-1H-pyrazolo[3,4-d]pyrimidin-1-yl)methyl)phenyl)morpholin-3-one] | ≤ 5.00 | 10-50 Fold | 6.00 to 7.00
O=C1CCCN1CCCn1cc(Nc2ncc3cnn(Cc4cccc(N5CCOCC5)c4)c3n2)cn1 [Example 30, 1-(3-(4-((1-(3-Morpholinobenzyl)-1H-pyrazolo[3,4-d]pyrimidin-6-yl)amino)-1H-pyrazol-1-yl)propyl)pyrrolidin-2-one] | ≤ 5.00 | >50 Fold | 5.00 to 6.00
CN(C)CC1(Cn2cc(Nc3ncc4cnn(Cc5cccc(N6CCOCC6)c5)c4n3)cn2)COC1 [Example 31, N-(1-((3-((Dimethylamino)methyl)oxetan-3-yl)methyl)-1H-pyrazol-4-yl)-1-(3-morpholinobenzyl)-1H-pyrazolo[3,4-d]pyrimidin-6-amine] | ≤ 5.00 | >50 Fold | 5.00 to 6.00
CC(CN(C)C)Cn1cc(Nc2ncc3cnn(Cc4cccc(N5CCOCC5)c4)c3n2)cn1 (stereo not drawn) [Example 32, N-(1-(3-(Dimethylamino)-2-methylpropyl)-1H-pyrazol-4-yl)-1-(3-morpholinobenzyl)-1H-pyrazolo[3,4-d]pyrimidin-6-amine] | ≤ 5.00 | >50 Fold | 5.00 to 6.00
CN(C)CC(O)Cn1cc(Nc2ncc3cnn(Cc4cccc(N5CCOCC5)c4)c3n2)cn1 (stereo not drawn) [Example 33, 1-(Dimethylamino)-3-(4-((1-(3-morpholinobenzyl)-1H-pyrazolo[3,4-d]pyrimidin-6-yl)amino)-1H-pyrazol-1-yl)propan-2-ol] | ≤ 5.00 | 10-50 Fold | 5.00 to 6.00
NCCCn1cc(Nc2ncc3cnn(Cc4cccc(N5CCOCC5)c4)c3n2)cn1 [Example 34, N-(1-(3-Aminopropyl)-1H-pyrazol-4-yl)-1-(3-morpholinobenzyl)-1H-pyrazolo[3,4-d]pyrimidin-6-amine] | ≤ 5.00 | >50 Fold | 5.00 to 6.00

Reference: patent US9040545B2, “Heterocyclyl pyrazolopyrimidine analogues as selective JAK inhibitors” (Cellzome Limited, priority 2010, dated 2015)
